Patent US20240041042A1, “1-(PYRIDYL)-5-AZINYLPYRAZOLE DERIVATIVES, AND THEIR USE FOR CONTROL OF UNDESIRED PLANT GROWTH” (Bayer Aktiengesellschaft, priority 2020, published 2024)
Read-outs that look alike come from different tables or passages of the source.

Key:
Format in all cases: in vivo
[1] = tested on: Polygonum convolvulus (POLCO); assay: Post-emergence herbicidal action against POLCO; settings: dosage 320 g/ha
How it was run: (§1)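 Post-emergence greenhouse spray, one-leaf stage, 600 l/ha water plus 0.5% additive; WP or EC formulations; application rates 320 g/ha or lower. Visual % damage vs untreated controls at ~3 weeks.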

Viola tricolor (VIOTR) [2] = assay: Pre-emergence herbicidal action against VIOTR; settings: 320 g/ha, Viola tricolor
How it was run: (§2)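 Application rates ran to 320 g/ha or lower, with several dosages tested on the same weeds. The compound, as wettable powder or emulsion concentrate, is sprayed pre-emergence onto soil over sown seeds; greenhouse growth follows, and effect is rated visually after roughly 3 weeks.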

Viola tricolor (VIOTR) [3] = assay: Post-emergence herbicidal action against VIOTR; settings: 320 g/ha
How it was run: as §1

Lolium rigidum (LOLRI) [4] = assay: Pre-emergence herbicidal action against LOLRI; settings: dosage 320 g/ha
How it was run: as §2

Oryza sativa (ORYSA) [5] = settings: crop plant compatibility, effect in comparison to untreated controls
How it was run: (§3)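 Effects were read visually as % versus untreated controls (0% = no effect, 100% = death) about 3 weeks post-treatment. Application was a post-emergence spray at the one-leaf stage of WP/EC formulations with 0.5% additive at 600 l/ha. Different dosages are denoted a, b and c.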

Zea mays (ZEAMX) [6] = settings: crop plant compatibility, effect vs untreated controls
How it was run: as §3

Glycine max (GLXMA) = settings: pre-emergence, 80 g/ha, crop plant compatibility, in comparison to untreated controls
How it was run: (§4)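 Crop injury rated visually in percent against untreated plants roughly 3 weeks after treatment (0% no effect, 100% plants dead). Compounds, as WP or EC with 0.5% additive in 600 l/ha water, were applied to the covering soil right after sowing; greenhouse growth. Suffixes a, b, c denote different dosages.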

Lolium rigidum (LOLRI) [7] = assay: Post-emergence herbicidal action against LOLRI; settings: dosage 320 g/ha
How it was run: as §1

[8] = tested on: Amaranthus retroflexus (AMARE); assay: Pre-emergence herbicidal action against AMARE; settings: 320 g/ha, visual scoring after about 3 weeks vs untreated controls
How it was run: as §2

[9] = tested on: Alopecurus myosuroides (ALOMY); assay: Post-emergence herbicidal action against ALOMY; settings: 320 g/ha, visual rating about 3 weeks after treatment vs untreated controls (100% = plants have died, 0% = like control plants)
How it was run: as §1

[10] = tested on: Digitaria sanguinalis (DIGSA); assay: Pre-emergence herbicidal action against DIGSA; settings: dosage 320 g/ha
How it was run: as §2

[11] = tested on: Alopecurus myosuroides (ALOMY); assay: Pre-emergence herbicidal action against ALOMY; settings: 320 g/ha; scored visually after about 3 weeks; 100% = plants have died
How it was run: as §2

Avena fatua (AVEFA) [12] = assay: Post-emergence herbicidal action against AVEFA; settings: 320 g/ha, visual rating about 3 weeks after treatment
How it was run: as §1

[13] = tested on: Amaranthus retroflexus (AMARE); assay: Post-emergence herbicidal action against AMARE
How it was run: as §1

Setaria viridis (SETVI) [14] = assay: Pre-emergence herbicidal action against SETVI; settings: dosage 320 g/ha
How it was run: as §2

[15] = tested on: Matricaria inodora (MATIN); assay: Pre-emergence herbicidal action against MATIN
How it was run: as §2

Zea mays (ZEAMX) [16] = settings: pre-emergence, crop plant compatibility, in comparison to untreated controls
How it was run: as §4

Setaria viridis (SETVI) [17] = assay: Post-emergence herbicidal action against SETVI; settings: dosage 320 g/ha
How it was run: as §1

Avena fatua (AVEFA) [18] = assay: Pre-emergence herbicidal action against AVEFA; settings: 320 g/ha, visual scoring after about 3 weeks vs untreated controls
How it was run: as §2

[19] = tested on: Verconica persica (VERPE); assay: Post-emergence herbicidal action against VERPE
How it was run: as §1

[20] = tested on: Echinochloa crus-galli (ECHCG); assay: Post-emergence herbicidal action against ECHCG; settings: dosage 320 g/ha
How it was run: as §1

[21] = tested on: Pharbitis purpurea (PHBPU); assay: Post-emergence herbicidal action against PHBPU
How it was run: as §1

[22] = tested on: Matricaria inodora (MATIN); assay: Post-emergence herbicidal action against MATIN; settings: dosage 320 g/ha
How it was run: as §1

[23] = tested on: Abutilon theophrasti (ABUTH); assay: Post-emergence herbicidal action against ABUTH; settings: 320 g/ha, visual rating about 3 weeks after treatment vs untreated controls (100% = plants have died, 0% = like control plants)
How it was run: as §1

[24] = tested on: Echinochloa crus-galli (ECHCG); assay: Pre-emergence herbicidal action against ECHCG; settings: dosage 320 g/ha
How it was run: as §2

[25] = tested on: Polygonum convolvulus (POLCO); assay: Pre-emergence herbicidal action against POLCO; settings: dosage 320 g/ha
How it was run: as §2

[26] = tested on: Triticum aestivum (TRZAS); settings: crop plant compatibility, 80 g/ha, effect vs untreated controls
How it was run: as §3

Brassica napus (BRSNW) = settings: 80 g/ha, crop plant compatibility, in comparison to untreated controls
How it was run: as §4

Oryza sativa (ORYSA) [27] = settings: pre-emergence, crop plant compatibility, in comparison to untreated controls
How it was run: as §4

[28] = tested on: Triticum aestivum (TRZAS); settings: pre-emergence, crop plant compatibility, in comparison to untreated controls
How it was run: as §4

[29] = 80 g/ha, visual rating about 3 weeks after treatment vs untreated controls (100% = plants have died, 0% = like control plants)
[30] = 320 g/ha, visual rating about 3 weeks after treatment

Row | Compound | Post-emergence action against POLCO in % [1] [%] | Pre-emergence action against VIOTR in % (Viola tricolor (VIOTR) [2]) [%] | Post-emergence action against VIOTR in % (Viola tricolor (VIOTR) [3]) [%] | Pre-emergence action against LOLRI in % (Lolium rigidum (LOLRI) [4]) [%] | Post-emergence action against ORYSA in % (Oryza sativa (ORYSA) [5]; 80 g/ha) [%] | Post-emergence action against ORYSA in % (Oryza sativa (ORYSA) [5]; 320 g/ha) [%] | Post-emergence action against ZEAMX in % (Zea mays (ZEAMX) [6]; 80 g/ha) [%] | Post-emergence action against ZEAMX in % (Zea mays (ZEAMX) [6]; 320 g/ha) [%] | Pre-emergence action against GLXMA in % (Glycine max (GLXMA)) [%] | Post-emergence action against LOLRI in % (Lolium rigidum (LOLRI) [7]) [%] | Pre-emergence action against AMARE in % [8] [%] | Post-emergence action against ALOMY in % [9] [%] | Pre-emergence action against ALOMY [11] [%] | Post-emergence action against AMARE in % [13, 29] [%] | Post-emergence action against AMARE in % [13, 30] [%] | Pre-emergence action against SETVI in % (Setaria viridis (SETVI) [14]) [%] | Pre-emergence action against MATIN in % ([15]; dosage 320 g/ha) [%] | Pre-emergence action against ZEAMX in % (Zea mays (ZEAMX) [16]; 80 g/ha) [%] | Post-emergence action against SETVI in % (Setaria viridis (SETVI) [17]) [%] | Post-emergence action against VERPE in % ([19]; 320 g/ha, VERPE) [%] | other results
1 | C[C@@H](Oc1nn(-c2ccccn2)c(-c2ccc(Cl)nc2)c1Br)C(=O)O [Example I-240] | 80 | 90 | 80 | 90 | 0 | 0 | 10 | 20 | 20 | 80 | 90 | 80 | 90 |  |  |  |  |  |  |  | Pre-emergence action against DIGSA in % [10]: 90%
2 | C[C@@H](Oc1nn(-c2ncccc2F)c(-c2ccc(F)nc2)c1F)C(=O)O [Example I-306] | 80 | 80 | 80 | 100 | 0 |  |  |  | 0 | 90 | 90 | 100 | 90 | 80 | 80 | 80 | 90 | 20 | 90 | 90 | Post-emergence action against AVEFA in % (Avena fatua (AVEFA) [12]): 80%; Pre-emergence action against MATIN in % ([15]; dosage 80 g/ha): 90%; Pre-emergence action against AVEFA in % (Avena fatua (AVEFA) [18]): 80%; Post-emergence action against ECHCG in % [20]: 90%
3 | COC(=O)CCOC(=O)COc1nn(-c2ccccn2)c(-c2ccc(F)nc2)c1F [Example I-309] | 80 |  |  |  |  |  |  |  | 0 | 90 | 90 |  | 90 | 90 | 90 | 90 | 90 | 0 | 90 | 80 | Post-emergence action against PHBPU in % ([21]; dosage 80 g/ha): 80%; Post-emergence action against PHBPU in % ([21]; dosage 320 g/ha): 90%; Post-emergence action against MATIN in % [22]: 80%; Post-emergence action against ABUTH in % [23]: 80%; Pre-emergence action against ZEAMX in % (Zea mays (ZEAMX) [16]; 320 g/ha): 10%; Post-emergence action against VERPE in % ([19]; dosage 80 g/ha): 80%; Post-emergence action against ECHCG in % [20]: 90%; Pre-emergence action against ECHCG in % [24]: 80%; Pre-emergence action against POLCO in % [25]: 80%
4 | CC(=O)CNC(=O)COc1nn(-c2ccnc(F)c2)c(-c2ccc(F)nc2)c1Br [III-07] |  |  |  |  | 0 | 0 | 0 | 0 |  |  |  |  | 80 |  |  |  |  | 0 |  |  | Post-emergence action against TRZAS in % [26]: 0%; Post-emergence action against ABUTH in % [23]: 80%; Pre-emergence action against BRSNW in % (Brassica napus (BRSNW)): 0%; Pre-emergence action against ORYSA in % (Oryza sativa (ORYSA) [27]; 80 g/ha): 0%; Pre-emergence action against ORYSA in % (Oryza sativa (ORYSA) [27]; 320 g/ha): 20%; Pre-emergence action against ZEAMX in % (Zea mays (ZEAMX) [16]; 320 g/ha): 10%; Pre-emergence action against TRZAS in % ([28]; 80 g/ha): 0%; Pre-emergence action against TRZAS in % ([28]; 320 g/ha): 0%
